According to patent US7425579B2, “Methods for inhibiting activity of polyamine transporters” (Universite Laval, priority 1998, dated 2008):

Key:
[1] = tested on: MDA-MB-231 human breast cancer xenograft; assay: MDA-MB-231 human breast cancer xenograft in nude mice; assay type: in vivo, immunodeficient CD-1 mice
Experimental: (§1) In particular, the mice have been treated with the following compounds: BNSD-X (1% w/v) (●), 0.3 (w/v) DFMO (□), 0.3% DFMO+BNSD-X (▪), 1% (w/v) DFMO (Δ), or 1% DFMO+BNSD-X (▴). Drugs were dissolved in drinking water which was given ad libitum to the animals. Control mice (∘) received distilled water only;
as §1, with “only; and” for “only;”
In particular, these compounds are BNSD-X (1% w/v), 0.3 (w/v) DFMO, 0.3% DFMO+BNSD-X, 1% (w/v) DFMO, or 1% DFMO+BNSD-X Drugs were dissolved in drinking water which was given ad libitum to the animals. Control mice received distilled water only.
For human xenograft experiments, athymic CD-1 mice were inoculated with 5×10^6 MDA-MB-231 human breast cancer cells (grown in tissue culture incubators to mid-exponential phase) in both sides of the inguinal mammary fat pad. After ˜2 weeks, when the tumor had reached a diameter ˜4 mm (as measured with a caliper), control mice were paired to treated ones in accordance with tumor volume (time zero). Animals were allowed free access to water containing 0, 0.3 or 1% DFMO (w/v), plus or minus 1% (w/v) BNSD-X (7 mice/experimental group). Tumor volume (V) was measured twice weekly with a caliper in 2 dimensions using the approximation V=(L×w^2)/2, where L is the length and w is the width of the xenograft (Bandyopadhyay et al., (2002) Cancer Res. 62:4690-4695). Animals were sacrificed after 39 d (i.e. when tumor size in control mice had reached about 500 mm^3). Mammary tumors were be excised and weighed.
The efficacy of BNSD-X as a chemotherapeutic agent was assessed in the MDA-MB-231 model of human breast cancer xenograft in the nude mouse, a model which is known to be sensitive to polyamine depletion by DFMO (Weeks et al., (2000) Exp Cell Res. 261:293-302). For that purpose, MDA-MB-231 cells were injected in the left and right mammary fat pads of immunodeficient CD-1 mice. Mice were then allowed to drink either BNSD-X at the optimal concentration (1%, w/v), as well as DFMO at either 0.3% or 1% (w/v) plus or minus 1% BNSD-X for 39 days before sacrificing the animals and measuring total final tumor mass (FIG. 12-14). The BNSD-X solution alone or with 0.3% DFMO led to a slight (˜7%) reduction of body weight, which was attenuated by the addition of 1% DFMO (FIG. 13) However, this effect of body weight could largely be accounted on the decreased tumor burden in the BNSD-X treated animals (FIG. 14). […]

mice = assay: Acute and subacute oral toxicity of BNSD-X by gavage; assay type: in vivo
Experimental: To assess the relative toxicity of BNSD-X, the drug was administered as a 1% (w/v) solution in the drinking water to CD-1 mice with ad libitum access for 14 d. Mice were weighed every other day during the experiment. At the end of the experiment, mice were sacrificed, and organs (kidneys, liver, and spleen) were immediately weighed. Organs were then saved in 10% formalin for morphological examination by an in-house pathologist at the CHUL Research Center (Quebec City, Canada). Acute and subacute oral toxicity of BNSD-X was also separately determined by administering the drug by gavage (0-5 g/kg body weight).
Orally administered polyamines (at ≧0.6 g/kg/day) can have deleterious neurological effects and induce lesions on internal organs (Til et al. (1997) Food Chem Toxicol. 35:337-348.). In order to assess the acute and subacute toxicity of BNSD-X as an orally delivered hexaamine, the effects of gavage with solid BNSD-X pellets was first examined in mice.

CHO-K1 cells = assay: Reversal of DFMO-induced cytostasis by exogenous spermidine in CHO-K1 cells; assay type: cell-based, Chinese hamster
Experimental: FIGS. 8A and 8B are graphs representing the time course of the effect of a compound used in a method according to a preferred embodiment of the invention on rescue of DFMO-induced cytostasis by exogenous spermidine. In particular, at time zero, T-47D (panel A) or CHO-K1 (panel B) were seeded at 1×10^4 or 5×10^3 cells/well, respectively, in medium containing 1 mM aminoguanidine, plus either 0.3 μM spermidine (Spd, ●), 2 mM DFMO (□), Spd+DFMO (▪), 50 μM (A) or 100 μM (B) BNSD-X (Δ), BNSD-X+Spd (▴), BNSD-X+DFMO (□), BNSD-X+Spd+DFMO (▾), or vehicle only (∘). At the indicated time, total DNA content/well was determined. Data are presented as the mean±SD for triplicate cultures from one representative experiment;
To determine the ability of polyamine transport antagonists to potentiate DFMO-induced inhibition of cell proliferation in the presence of exogenous polyamines, cells were grown for the indicated period in growth medium supplemented with 1 mM aminoguanidine, and either DFMO (1 to 5 mM), the indicated transport inhibitor (50 or 100 μM), or the combination thereof, as well as increasing concentrations of spermidine (0.1 to 300 μM). Fresh medium was added every other day, and cell mass was determined at various time points during the period of exponential growth, or at the end of the experimental period. For the latter experiments, the FBS supplement was replaced with dextran-coated charcoal-treated FBS (5%, v/v) plus 0.5 μg/ml insulin in the case of T-47D, ZR-75-1 and MCF-7 cells (U.S. Pat. No. 6,083,496).

NCCCN(CCCN)Cc1ccc(CN(CCCN)CCCN)cc1 [28a, N,N,N′,N′-tetrakis-(3-aminopropyl)-p-diaminoxylene]
reduction of body weight ([1]; 1% (w/v) BNSD-X alone in drinking water): ~7%
decrease of total tumor mass ([1]; 1% (w/v) BNSD-X as a single agent, 39-d treatment): 65±10%
adverse effect on animal behavior, body weight, body features and gross anatomy of kidneys, liver or spleen (mice; gavage, up to 5.0 g/kg body weight): No external sign of sign of adverse effect
LD50 (mice; oral gavage with solid BNSD-X pellets): > 5 g/body weight
effect on the antiproliferative action of DFMO in the nominal absence of exogenous polyamines, CHO-K1 (CHO-K1 cells; 100 μM BNSD-X, 2 mM DFMO): strongly potentiated the antiproliferative effect of DFMO
effect on spermidine-mediated reversal of DFMO-induced growth inhibition, CHO-K1 (CHO-K1 cells; DFMO-treated CHO-K1 cells with extracellular spermidine, data not shown): afforded increased resistance to exogenous spermidine
